Laboratory results reported in patent US20220339144A1, “PYRIDINYL INDOLE COMPOUNDS AND METHODS OF USE THEREOF” (Chinook Therapeutics Canada, Inc., priority 2021, published 2022).

How the values were obtained:
AMPKα1β2γ1 = biological target: T1, AMPKα1β2γ1 (Homo sapiens, UniProt O43741+Q13131); test: AMPKα1β2γ1 biochemical assay (LabChip EZ Reader mobility shift); conditions: second EC50 column of Table 1 (head repeats α1β1γ1; text says α1β2γ1 isoform); read-out: Human AMPK AMPKα1β1γ1 EC50
T1 construct: purchased Carna Biosciences (printed only as 'Biosciences') 02-147
Procedure: (§1) Compounds disclosed herein were evaluated for their ability to activate AMPKα1β1γ1 by measuring phosphorylation of a commercially available fluorescent AMPK substrate using the LabChip® EZ Reader microfluidic system that is based on a mobility shift principle in which unphosphorylated fluorescent substrates may be separated and distinguished from phosphorylated fluorescent substrates due to the difference in negative charge. Briefly, compounds were serial diluted 3-fold in 100% DMSO for an 11-point dose-response curve. A 20 nL aliquot of diluted compound was transferred into a 384-well plate using a liquid handler (Labcyte Inc., Echo 550). A pre-prepared solution (10 mM MgCl2, 0.01% Brij-35, 2 mM DTT, 0.05% BSA, 1 mM EGTA, and 50 mM HEPES pH 7.5) was combined with 0.83 nM AMPKα1β1γ1 (Carna Biosciences, 02-113). The enzyme solution (15 μL) was aliquoted into each well and the plate was incubated at 24° C. for 30 min. A second stock solution (10 mM MgCl2, 0.01% Brij-35, 2 mM DTT, 0.05% BSA, 1 mM EGTA, 800 μM ATP, and 50 mM HEPES pH 7.5) was combined with 6 μM fluorescent peptide substrate for AMPKal (Perkin Elmer, 760351). The kinase reaction was initiated by adding 5 μL of the second solution containing substrate and ATP to each well. The plate was incubated at 24° C. for 90 minutes and 75 μL of 0.5 M EDTA was added to terminate the reaction. The plates were analyzed using a LabChip® EZ Reader (Perkin Elmer, 122919) and the effective concentration to achieve 50% of the maximal activity (EC50) was calculated after normalizing to the DMSO vehicle control.
The same procedure above was also used to measure activation of the AMPKα1β2γ1 isoform, replacing AMPKα1β1γ1 with AMPKα1β2γ1 Biosciences 02-147).

AMPKα1β1γ1 = biological target: T2, AMPKα1β1γ1 (Homo sapiens, UniProt Q13131+Q9Y478); test: AMPKα1β1γ1 biochemical assay (LabChip EZ Reader mobility shift); conditions: EC50 of Table 1; activation, normalized to DMSO vehicle control; read-out: Human AMPK AMPKα1β1γ1 EC50
T2 construct: purchased Carna Biosciences 02-113
Procedure: as §1

[1] = tested on: miniature pig model of ADPKD; conditions: cited from earlier work
high fat diet mice = conditions: cited from earlier work
[2] = tested on: orthologous mouse model of ADPKD; conditions: cited from earlier work
[3] = tested on: ZSF1 rat model of diabetic nephropathy; conditions: cited from earlier work
[4] = tested on: Pkd1 knockout mouse model of ADPKD; conditions: orthologous Pkd1 knockout mouse model of ADPKD; cited from earlier work
Wistar Han rats = conditions: 14 days of treatment in Wistar Han rats; cited from earlier work
[5] = ZSF1 progressive rat model of diabetic nephropathy

T2 sequence (Q13131 whole entry): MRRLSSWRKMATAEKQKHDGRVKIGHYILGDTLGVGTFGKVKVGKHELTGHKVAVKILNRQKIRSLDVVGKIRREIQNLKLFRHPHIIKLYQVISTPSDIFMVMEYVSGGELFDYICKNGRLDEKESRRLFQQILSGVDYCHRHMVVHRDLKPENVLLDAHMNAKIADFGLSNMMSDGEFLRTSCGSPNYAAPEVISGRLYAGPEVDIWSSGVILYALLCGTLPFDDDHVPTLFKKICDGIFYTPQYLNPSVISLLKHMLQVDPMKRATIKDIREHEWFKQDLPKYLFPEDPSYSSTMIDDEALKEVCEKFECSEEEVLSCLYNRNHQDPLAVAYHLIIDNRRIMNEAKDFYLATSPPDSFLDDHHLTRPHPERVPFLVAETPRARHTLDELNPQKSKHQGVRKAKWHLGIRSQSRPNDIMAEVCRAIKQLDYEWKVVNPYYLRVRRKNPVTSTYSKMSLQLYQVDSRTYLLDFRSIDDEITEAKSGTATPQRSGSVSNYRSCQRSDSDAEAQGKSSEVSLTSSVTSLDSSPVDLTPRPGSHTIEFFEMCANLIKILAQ
T2 sequence (Q9Y478 whole entry): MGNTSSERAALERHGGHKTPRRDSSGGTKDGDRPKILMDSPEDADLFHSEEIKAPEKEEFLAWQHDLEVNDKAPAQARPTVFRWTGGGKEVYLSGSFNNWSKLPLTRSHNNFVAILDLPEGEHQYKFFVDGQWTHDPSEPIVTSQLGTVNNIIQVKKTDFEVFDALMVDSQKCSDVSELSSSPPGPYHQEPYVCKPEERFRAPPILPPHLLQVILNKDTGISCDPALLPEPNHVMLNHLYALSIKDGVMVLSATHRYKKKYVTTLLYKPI
T2 sequence (P54619 whole entry partner): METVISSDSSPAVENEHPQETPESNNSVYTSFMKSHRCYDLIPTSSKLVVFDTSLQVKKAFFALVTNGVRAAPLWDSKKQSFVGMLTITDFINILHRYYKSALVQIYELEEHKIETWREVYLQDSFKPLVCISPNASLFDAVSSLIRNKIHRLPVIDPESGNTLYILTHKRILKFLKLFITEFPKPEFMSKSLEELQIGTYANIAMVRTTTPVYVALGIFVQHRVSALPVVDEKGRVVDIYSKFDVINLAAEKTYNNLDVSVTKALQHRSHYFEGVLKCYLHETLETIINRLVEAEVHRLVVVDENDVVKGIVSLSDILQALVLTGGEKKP
T1 sequence (Q13131 whole entry, canonical isoform): as the sequence (Q13131 whole entry) above
T1 sequence (O43741 whole entry, canonical isoform): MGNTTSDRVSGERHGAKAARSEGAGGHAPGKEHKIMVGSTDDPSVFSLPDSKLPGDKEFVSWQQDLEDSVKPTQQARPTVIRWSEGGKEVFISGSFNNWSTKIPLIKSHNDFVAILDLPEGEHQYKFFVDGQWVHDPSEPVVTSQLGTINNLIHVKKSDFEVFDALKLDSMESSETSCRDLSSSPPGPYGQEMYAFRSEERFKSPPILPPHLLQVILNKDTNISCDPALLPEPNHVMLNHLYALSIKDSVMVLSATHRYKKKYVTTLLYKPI
T1 sequence (P54619 whole entry partner, canonical isoform): as the sequence (P54619 whole entry partner) above

| Compound | EC50 (AMPKα1β2γ1) | EC50 (AMPKα1β1γ1) | further results |
| --- | --- | --- | --- |
| COc1nc(N2CC3(CC3)C2)ccc1-c1cc2c(C(=O)O)c[nH]c2cc1Cl [Example 12, 5-[6-(5-azaspiro[2.3]hexan-5-yl)-2-methoxy-3-pyridyl]-6-chloro-1H-indole-3-carboxylic acid] | > 10 µM | ≤ 50 nM | – |
| COc1nc(N2CC3(CCOC3)C2)ccc1-c1cc2c(C(=O)O)c[nH]c2cc1Cl [Example 21, 6-chloro-5-(2-methoxy-6-(6-oxa-2-azaspiro[3.4]octan-2-yl)pyridin-3-yl)-1H-indole-3-carboxylic acid] | > 10 µM | ≤ 50 nM | – |
| COc1nc(N2CC3(CC(=O)N(C)C3)C2)ccc1-c1cc2c(C(=O)O)c[nH]c2cc1Cl [Example 22, 6-chloro-5-(2-methoxy-6-(6-methyl-7-oxo-2,6-diazaspiro[3.4]octan-2-yl)pyridin-3-yl)-1H-indole-3-carboxylic acid] | > 10 µM | ≤ 50 nM | – |
| COc1nc(N2C[C@H]3CN(C(C)=O)C[C@H]3C2)ccc1-c1cc2c(C(=O)O)c[nH]c2cc1Cl [Example 38, 5-(6-((3aR,6aS)-5-acetylhexahydropyrrolo [3,4-c]pyrrol-2(1H)-yl)-2-methoxypyridin-3-yl)-6-chloro-1H-indole-3-carboxylic acid] | 0.25 to 10 µM | ≤ 50 nM | – |
| CN(C)C(=N)N=C(N)N [Metformin] | – | – | cystic kidney disease [1]: attenuate cystic kidney disease; high fat diet-induced metabolic derangement and renal injury (high fat diet mice): reduce high fat diet-induced metabolic derangement and renal injury; cystic kidney disease [2]: attenuate cystic kidney disease |
| O=C(O)c1c[nH]c2cc(Cl)c(-c3ccc(C4(O)CCC4)cc3)cc12 [PF-06409577] | – | – | proteinuria ([3]; ZSF1 rat model of diabetic nephropathy): reduced proteinuria |
| O=C(Oc1ccccc1C(=O)O)c1ccccc1O [salsalate] | – | – | cystic disease severity [4]: attenuate cystic disease severity |
| MK-8722 | – | – | proteinuria, glomerular filtration rate, and kidney fibrosis [3, 5]: significant improvements; renal protection [3, 5]: renal protective; cardiac glycogen levels (Wistar Han rats): increased cardiac glycogen levels; cardiac hypertrophy (Wistar Han rats): significant cardiac hypertrophy |

Second part, led by results:

| EC50 (AMPKα1β2γ1) | EC50 (AMPKα1β1γ1) | Compound | further results |
| --- | --- | --- | --- |
| > 10 µM | ≤ 50 nM | COc1nc(N2CC3(CCC3)C2)ccc1-c1cc2c(C(=O)O)c[nH]c2cc1Cl [Example 13, 6-chloro-5-(2-methoxy-6-(2-azaspiro[3.3]heptan-2-yl)pyridin-3-yl)-1H-indole-3-carboxylic acid] | – |
| > 10 µM | 50 to 100 nM | COc1nc(N2CC3(CCC(=O)N3)C2)ccc1-c1cc2c(C(=O)O)c[nH]c2cc1Cl [Example 17, 6-chloro-5-(2-methoxy-6-(6-oxo-2,5-diazaspiro[3.4]octan-2-yl)pyridin-3-yl)-1H-indole-3-carboxylic acid] | – |
| > 10 µM | ≤ 50 nM | COc1nc(N2CC3(CCNC3=O)C2)ccc1-c1cc2c(C(=O)O)c[nH]c2cc1Cl [Example 18, 6-chloro-5-(2-methoxy-6-(5-oxo-2,6-diazaspiro[3.4]octan-2-yl)pyridin-3-yl)-1H-indole-3-carboxylic acid] | – |
| > 10 µM | ≤ 50 nM | COc1nc(N2CC3(CNC(=O)C3)C2)ccc1-c1cc2c(C(=O)O)c[nH]c2cc1Cl [Example 19, 6-chloro-5-(2-methoxy-6-(7-oxo-2,6-diazaspiro[3.4]octan-2-yl)pyridin-3-yl)-1H-indole-3-carboxylic acid] | – |
| > 10 µM | 50 to 100 nM | COc1nc(N2C[C@@H]3[C@H](C2)[C@H]3OC)ccc1-c1cc2c(C(=O)O)c[nH]c2cc1Cl [Example 23, 6-chloro-5-(2-methoxy-6-((trans)-6-methoxy-3-azabicyclo[3.1.0]hexan-3-yl)pyridin-3-yl)-1H-indole-3-carboxylic acid] | – |
| 0.25 to 10 µM | ≤ 50 nM | COc1nc(N2C[C@@H]3[C@@H](O)[C@@H]3C2)ccc1-c1cc2c(C(=O)O)c[nH]c2cc1Cl [Example 24, 6-chloro-5-(6-((trans)-6-hydroxy-3-azabicyclo[3.1.0]hexan-3-yl)-2-methoxypyridin-3-yl)-1H-indole-3-carboxylic acid] | – |
| > 10 µM | 50 to 100 nM | COc1nc(N2C[C@H]3COC[C@H]3C2)ccc1-c1cc2c(C(=O)O)c[nH]c2cc1Cl [Example 27, 6-chloro-5-(2-methoxy-6-((cis)-tetrahydro-1H-furo[3,4-c]pyrrol-5(3H)-yl)pyridin-3-yl)-1H-indole-3-carboxylic Acid] | – |
| 0.25 to 10 µM | ≤ 50 nM | COc1nc(N2C[C@@H]3COC[C@H]3C2)ccc1-c1cc2c(C(=O)O)c[nH]c2cc1Cl [Example 33, 6-chloro-5-(2-methoxy-6-((3aR, 6aR)-tetrahydro-1H-furo[3,4-c]pyrrol-5(3H)-yl)pyridin-3-yl)-1H-indole-3-carboxylic acid] | – |
| 0.25 to 10 µM | ≤ 50 nM | COc1nc(N2C[C@H]3COC[C@@H]3C2)ccc1-c1cc2c(C(=O)O)c[nH]c2cc1Cl [Example 34, 6-chloro-5-(2-methoxy-6-((3aS,6aS)-tetrahydro-1H-furo[3,4-c]pyrrol-5(3H)-yl)pyridin-3-yl)-1H-indole-3-carboxylic acid] | – |
| > 10 µM | ≤ 50 nM | COc1nc(N2CC3(COC3)C2)ccc1-c1c(F)cc2[nH]cc(C(=O)O)c2c1F [Example 41, 4,6-difluoro-5-(2-methoxy-6-(2-oxa-6-azaspiro[3.3]heptan-6-yl)pyridin-3-yl)-1H-indole-3-carboxylic acid] | – |
